Data as given in article PMC7342775 (European journal of medicinal chemistry, 2020).

Columns and labels:
[1] = system: α1β3γ2 GABAAR; details: cited from earlier work; for selectivity favoring the etomidate site / selectivity favoring the R-mTFD-MPAB sites: 4-substituted propofols
[2] = molecular target: T1, α1β3γ2L GABAARs (Homo sapiens, UniProt P14867+P18507+P28472); experiment: Modulation of [3H]muscimol binding, native HEK cell membranes
[3] = system: α1β3γ2 GABAAR; experiment: Selectivity between etomidate and R-mTFD-MPAB sites; format: binding, human
[4] = molecular target: T1, α1β3γ2L GABAARs; experiment: Two-microelectrode voltage-clamp electrophysiology in Xenopus oocytes, wild type
[5] = molecular target: T2, α1β3 GABAARs (Homo sapiens, UniProt P14867+P28472); experiment: Modulation of [3H]muscimol binding, α1β3 receptors
T2 sequence (P14867 28-456): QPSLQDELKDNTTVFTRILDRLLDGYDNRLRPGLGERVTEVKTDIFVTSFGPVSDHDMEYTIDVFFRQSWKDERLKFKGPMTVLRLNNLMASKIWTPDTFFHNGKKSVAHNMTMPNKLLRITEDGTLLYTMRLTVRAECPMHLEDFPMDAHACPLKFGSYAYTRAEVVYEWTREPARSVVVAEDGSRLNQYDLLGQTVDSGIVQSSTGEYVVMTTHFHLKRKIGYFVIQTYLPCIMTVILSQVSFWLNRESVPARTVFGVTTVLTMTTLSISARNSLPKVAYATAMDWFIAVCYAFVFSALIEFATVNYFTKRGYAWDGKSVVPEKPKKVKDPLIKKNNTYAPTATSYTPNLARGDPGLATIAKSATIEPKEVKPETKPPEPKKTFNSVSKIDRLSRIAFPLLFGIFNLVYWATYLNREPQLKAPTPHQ
T2 sequence (P28472 26-473): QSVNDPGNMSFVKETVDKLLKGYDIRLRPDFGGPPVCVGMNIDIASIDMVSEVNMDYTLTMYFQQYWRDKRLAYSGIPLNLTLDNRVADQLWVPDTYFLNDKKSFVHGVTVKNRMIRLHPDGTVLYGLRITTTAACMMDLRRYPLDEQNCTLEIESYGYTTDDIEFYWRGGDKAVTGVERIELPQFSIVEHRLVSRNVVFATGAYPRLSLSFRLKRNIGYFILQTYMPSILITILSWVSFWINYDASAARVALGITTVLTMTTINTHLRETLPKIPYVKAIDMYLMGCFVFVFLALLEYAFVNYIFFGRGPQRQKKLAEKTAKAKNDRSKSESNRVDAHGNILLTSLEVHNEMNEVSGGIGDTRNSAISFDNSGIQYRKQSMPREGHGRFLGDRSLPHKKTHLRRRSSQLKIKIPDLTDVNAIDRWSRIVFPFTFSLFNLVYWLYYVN

[6] = molecular target: T1, α1β3γ2L GABAARs; experiment: [3H]pTFD-di-iPr-BnOH photolabeling and its inhibition; format: binding; details: with GABA; for inhibition of [3H]pTFD-di-iPr-BnOH photoincorporation into the β subunit: 300 μM etomidate, 30 μM allopregnanolone, fluorography
[7] = molecular target: α1(S270I)β3γ2L receptors (Homo sapiens, UniProt P14867+P18507+P28472, S297I); experiment: Oocyte electrophysiology, enhancement of low-GABA currents, α1 S270I mutant; format: cell-based; details: for enhancement of GABA currents compared to wild type: 5 μM etomidate, 8 μM R-mTFD-MPAB
[8] = molecular target: T1, α1β3γ2L GABAARs; experiment: Inhibition of [3H]R-mTFD-MPAB photolabeling; format: binding
[9] = molecular target: T1, α1β3γ2L GABAARs; experiment: Inhibition of [3H]azietomidate photolabeling; format: binding; details: in the presence of 300 μM etomidate
[10] = system: Xenopus laevis tadpoles; experiment: Loss of righting reflexes; format: in vivo

T1 sequence (P18507 40-475, one chain of several): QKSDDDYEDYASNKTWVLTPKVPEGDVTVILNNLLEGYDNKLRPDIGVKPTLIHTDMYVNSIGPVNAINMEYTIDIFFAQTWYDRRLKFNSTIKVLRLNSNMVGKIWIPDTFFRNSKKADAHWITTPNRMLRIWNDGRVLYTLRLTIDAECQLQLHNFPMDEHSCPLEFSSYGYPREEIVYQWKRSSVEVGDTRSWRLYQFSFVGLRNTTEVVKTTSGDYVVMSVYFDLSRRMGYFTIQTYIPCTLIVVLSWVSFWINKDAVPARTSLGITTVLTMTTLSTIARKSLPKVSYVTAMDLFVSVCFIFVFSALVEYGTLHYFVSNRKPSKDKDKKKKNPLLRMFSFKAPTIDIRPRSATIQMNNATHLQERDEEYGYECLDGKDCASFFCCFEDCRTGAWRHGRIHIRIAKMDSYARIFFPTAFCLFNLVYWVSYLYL
α1(S270I)β3γ2L receptors, sequence (P14867 28-456 S297I, one chain of several): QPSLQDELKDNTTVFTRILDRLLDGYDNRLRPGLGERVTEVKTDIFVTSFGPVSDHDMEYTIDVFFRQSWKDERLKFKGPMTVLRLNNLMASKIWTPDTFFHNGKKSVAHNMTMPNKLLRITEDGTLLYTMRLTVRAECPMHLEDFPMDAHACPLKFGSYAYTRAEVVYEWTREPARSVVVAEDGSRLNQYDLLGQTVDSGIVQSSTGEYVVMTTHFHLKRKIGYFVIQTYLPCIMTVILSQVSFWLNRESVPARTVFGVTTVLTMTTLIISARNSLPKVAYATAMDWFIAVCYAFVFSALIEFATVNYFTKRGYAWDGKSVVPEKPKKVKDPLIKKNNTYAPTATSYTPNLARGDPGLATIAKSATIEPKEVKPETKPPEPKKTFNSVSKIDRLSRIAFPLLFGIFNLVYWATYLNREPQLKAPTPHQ
α1(S270I)β3γ2L receptors, sequence (P18507 40-475, one chain of several): as the sequence (P18507 40-475, one chain of several) above

## CC(C)c1cc(Cl)cc(C(C)C)c1O [4-Cl-propofol]
[1]
  selectivity favoring the etomidate site: 4 fold

## CC(C)c1cc(C(=O)c2ccccc2)cc(C(C)C)c1O [4-benzoylpropofol]
[1]
  high affinity R-mTFD-MPAB site favored over the etomidate site: 200 fold
  low affinity R-mTFD-MPAB site favored over the etomidate sites: 3 fold

## OCc1ccccc1 [BnOH, benzyl alcohol]
[2]; tadpole LoRR vs HEK cell membranes
  LoRR at lower concentrations than modulation of [3H]muscimol binding: ~20 times
[2]; up to 50 mM
  modulation of [3H]muscimol binding: no modulation

## CC(C)c1cccc(C(C)C)c1CO [Di-iPr-BnOH, (2,6-diisopropylphenyl)methanol]
[3]
  selectivity favoring the etomidate site over R-mTFD-MPAB site: 2–3 fold

## NCCCC(=O)O [GABA, γ-aminobutyric acid]
[4]; 1 mM GABA
  elicited currents: 3.2 ± 1.5 μA
[4]; GABA alone
  Hill coefficient nH of GABA concentration-response curve: 1.0 ± 0.1

## CC(=O)c1cc(C(C)C)c(O)c(C(C)C)c1 [Me–CO–]
[1]
  selectivity favoring the R-mTFD-MPAB sites: 1.5 fold

## CC(C)c1cc(C(O)c2ccccc2)cc(C(C)C)c1O (centres unmarked) [Ph–C(OH)–]
[1]
  selectivity favoring the R-mTFD-MPAB sites: 5.3 fold

## CC(C)c1cccc(C(C)C)c1O [Propofol]
[5]
  EC50: 7 ± 1.7 µM
[6]; 300 μM, β subunit
  extent of inhibition of [3H]pTFD-di-iPr-BnOH photolabeling: to the same extent as the background labeling
[1]
  selectivity favoring the etomidate site: 5.5 fold

## C=CCC1(c2cccc(C3(C(F)(F)F)N=N3)c2)C(=O)NC(=O)N(C)C1=O (centres unmarked) [R–mTFD-MPAB, (5-allyl-1-methyl-5-(3-(3-(trifluoromethyl)-3H-diazirin-3-yl)phenyl)pyrimidine-2,4,6(1H,3H,5H)-trione)]
[7]
  enhancement of GABA currents compared to wild type: significantly reduced
[8]; in the presence of 60 μM R-mTFD-MPAB
  non-specific [3H]R-mTFD-MPAB photolabeling (Bns): 13 ± 4%

## CC(=O)[C@H]1CC[C@H]2[C@@H]3CC[C@H]4C[C@H](O)CC[C@]4(C)[C@H]3CC[C@]12C [allopregnanolone]
[6]
  inhibition of [3H]pTFD-di-iPr-BnOH photoincorporation into the β subunit: little inhibition of photolabeling

## CCOC(=O)c1cncn1[C@H](C)c1ccccc1 [etomidate]
[7]
  enhancement of GABA currents compared to wild type: comparable to that in wild-type
[9]
  non-specific [3H]azietomidate photolabeling (Bns): 13 ± 3%
[6]
  inhibition of [3H]pTFD-di-iPr-BnOH photoincorporation into the β subunit: little inhibition of photolabeling

## CC(C)c1cc(C2(C(F)(F)F)N=N2)cc(C(C)C)c1CO [pTFD-di-iPr-BnOH, (2,6-diisopropyl-4-(3-(trifluoromethyl)-3H-diazirin-3-yl)phenyl)methanol]
[10]; at 2 μM
  fraction of tadpoles that did not recover from anesthesia: 4/7
[10]; at 3 μM
  fraction of tadpoles that did not recover from anesthesia: 6/9
[10]; at 10 μM
  fraction of tadpoles that did not recover from anesthesia: 7/10
[10]; relative to Di-iPr-BnOH
  increase in LoRR potency: 6 fold
[7]; 10 μM pTFD-di-iPr-BnOH
  reduction of enhancement compared to wild type: more than 50%
[8]
  IC50: 73 ± 10 µM

## CC(C)c1cc(C(C)(C)C)cc(C(C)C)c1O [t-Bu–]
[1]
  selectivity favoring the R-mTFD-MPAB sites: 8 fold
